# Values quoted from earlier work, collected in patent publication US6582919B2, “Method of determining epidermal growth factor receptor and HER2-neu gene expression and correlation of levels thereof with survival rates” (Response Genetics, Inc., priority 2001, dated 2003).
# Columns and labels:
# [1] = system: EGFR expressing human mammary carcinoma cells; settings: cells injected into athymic nude mice (Toi et al. 1990)
# [2] = system: tumors not expressing EGFR; settings: Toi et al. 1990
structure (smiles),measurement,setting,value
O=CN/C=C/c1cc(O)ccc1O [erbstatin],growth of EGFR expressing human mammary carcinoma cells,[1],reduced the growth
same,growth of tumors not expressing EGFR,[2],no effect
